The values that follow are results of earlier work, collected in patent EP0769503A2, “A heparin complex and medical device having such substance” (priority 1995, dated 1997).

For the data set, the system named is rat. The settings on record: oral administration to rat.
What is called LD50 is the dose at which mortality reaches 50%. For `CCCCCCCCCCCCCCCCCC[N+](C)(C)CCCCCCCCCCCCCCCCCC.[Cl-]` [Distearyldimethylammonium chloride], the LD50 is recorded as 11300 mg/kg.

As to `CCCCCCCCCCCC[N+](C)(C)Cc1ccccc1.[Cl-]` [Laurylbenzyldimethylammonium chloride], the LD50 is given as above 500 mg/kg.

For the molecule `CCCCCCCCCCCCCCCCCC[N+](C)(C)Cc1ccccc1.[Cl-]` [Stearylbenzyldimethylammonium chloride], the LD50 was 1250 mg/kg.

As for `CCCCCCCCCCCCCCCC[N+](C)(C)C.[Cl-]` [Trimethylhexadecylammonium chloride], the LD50 was 250 to 300 mg/kg.

`CCCCCCCCCCCCCCCCCC[N+](C)(C)C.[Cl-]` [Trimethyloctadecylammonium chloride]: the LD50 is listed as 1000 mg/kg.

In the case of “Benzalkonium dimethylammonium (C8-C18) chloride”, the LD50 is given as 445 mg/kg.
